From patent US20240002416A1 (Rheinische-Friedrich-Wilhelms-Universität Bonn, priority 2020, published 2024)

How the values were obtained:
[1] = biological target: T1, human MRGPRX4-83L (Homo sapiens, UniProt Q96LA9); experiment: Calcium assay (human MRGPRX4 83L), recombinant astrocytes; assay type: cell-based; conditions: for EC50: calcium mobilization, MRGPRX4-83L, read-out: EC50 ± SEM; for Emax: efficacy based on maximal effect of 1 μM B-16 (set as 100%), read-out: Emax
T1 construct: host or cells: CHO β-arrestin cells
Protocol: (§1) For β-arrestin recruitment assays, recombinant Chinese hamster ovary (CHO) cells expressing the human MRGPRX4 were used (DiscoverX/Eurofins) which allowed to measure β-galactosidase complementation upon β-arrestin recruitment. For calcium mobilization assays, recombinant astrocytes expressing MRGPX4-83L, or LN229 glioblastoma cells natively expressing the MRGPRX4-83S, were used.
(§2) The assays were performed as previously described for other rhodopsin-like GPCRs (Müller, C.E.; 8-Benzamidochromen-4-one-2-carboxylic acids: potent and selective agonists for the orphan G protein-coupled receptor GPR35. J. Med. Chem. 2013, 56:5182-97; Müller, C.E. Molecular Recognition of Agonists and Antagonists by the Nucleotide-Activated G Protein-Coupled P2Y2 Receptor. J. Med. Chem. 2017, 60:8425-8440).

[2] = biological target: T1, human MRGPRX4-83L; experiment: β-arrestin assay (CHO β-arrestin ARMS1-ProLink 2 human MRGPRX4 83L); assay type: cell-based; conditions: for Emax: efficacy based on maximal effect of 100 nM B-16 (set as 100%), read-out: Emax; for EC50: β-arrestin recruitment, CHO cells, MRGPRX4-83L, read-out: EC50 ± SEM; for IC50: inhibition of the effect of 2.6 μM B-16
Protocol: as §1, §2

[3] = biological target: T2, MRGPRX4-83S (Homo sapiens, UniProt Q96LA9, L83S); experiment: Calcium assay (human glioblastoma LN229 cells expressing the MRGPRX4-83S); assay type: cell-based; parameters: LN229 glioblastoma cells natively expressing the MRGPRX4-83S; endogenous in cells; host or cells: LN229 human glioblastoma cells; conditions: Table 2; for Emax: LN-229, efficacy based on 30 μM H-1 (set as 100%), read-out: Emax; for EC50: calcium mobilization, LN229 cells, MRGPRX4-83S, read-out: EC50 ± SEM
Protocol: as §1, §2

[4] = biological target: T2, MRGPRX4-83S; experiment: β-arrestin assay (CHO β-arrestin human MRGPRX4-83S); assay type: cell-based; parameters: host or cells: CHO β-arrestin cells; conditions: for Emax / EC50: Table 2; for Emax: efficacy based on 100 nM B-16 (set as 100%), read-out: Emax; for EC50: β-arrestin recruitment, CHO cells, MRGPRX4-83S, read-out: EC50 ± SEM
Protocol: as §1, §2

[5] = Table 1, means of 3-4 experiments

T2 sequence (Q96LA9 whole entry L83S): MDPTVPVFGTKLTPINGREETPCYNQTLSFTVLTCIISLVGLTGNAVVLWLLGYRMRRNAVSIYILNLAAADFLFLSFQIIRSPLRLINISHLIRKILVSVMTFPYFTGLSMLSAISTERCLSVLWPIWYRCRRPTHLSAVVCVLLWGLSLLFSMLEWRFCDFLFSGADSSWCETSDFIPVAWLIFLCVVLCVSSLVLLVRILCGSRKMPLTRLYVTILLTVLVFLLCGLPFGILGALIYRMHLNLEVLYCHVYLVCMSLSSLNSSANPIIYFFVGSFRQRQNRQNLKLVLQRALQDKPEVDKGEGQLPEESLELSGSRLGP
T1 sequence (Q96LA9 whole entry): as the sequence (Q96LA9 whole entry L83S) above, with S83L counted along it

| EC50 ([1]; Table 1) | Emax ([1]; Table 1) | melting point | Emax ([2]; Table 1) | EC50 [2, 5] | EC50 ([1]; Table 4) | Emax ([1]; Table 4) | Emax ([2]; Table 4) | EC50 ([2]; Table 4) | EC50 [3] | EC50 [4] | Compound | further results |
| --- | --- | --- | --- | --- | --- | --- | --- | --- | --- | --- | --- | --- |
| 4.26 ± 0.56 nM | 115% | 192 to 195 °C | 144% | 25.9 ± 7.9 nM |  |  |  |  |  |  | C#CCn1c(=O)c2c(nc(CCc3ccccc3Br)n2CC)n(CCCCP(=O)(O)O)c1=O [B-19, (4-(8-(2-Bromophenethyl)-7-ethyl-2,6-dioxo-1-(prop-2-yn-1-yl)-1,2,6,7-tetrahydro-3H-purin-3-yl)butyl)phosphonic acid] |  |
| 1.86 ± 0.45 nM | 103% | 157 to 160 °C | 124% | 32.9 ± 7.5 nM |  |  |  |  |  |  | C#CCn1c(=O)c2c(nc(CCc3ccccc3Br)n2CCO)n(CCCCP(=O)(O)O)c1=O [B-20, (4-(8-(2-Bromophenethyl)-7-(2-hydroxyethyl)-2,6-dioxo-1-(prop-2-yn-1-yl)-1,2,6,7-tetrahydro-3H-purin-3-yl)butyl)phosphonic acid] |  |
| 2.02 ± 0.62 nM | 109% | 181 to 184 °C | 163% | 89.8 ± 20.9 nM |  |  |  |  |  |  | C#CCn1c(=O)c2c(nc(CCc3ccccc3Br)n2CC2CC2)n(CCCCP(=O)(O)O)c1=O [B-21, (4-(8-(2-Bromophenethyl)-7-(cyclopropylmethyl)-2,6-dioxo-1-(prop-2-yn-1-yl)-1,2,6,7-tetrahydro-3H-purin-3-yl)butyl)phosphonic acid] |  |
| 17.8 ± 6.2 nM | 119% | 178 to 181 °C | 176% | 208 ± 49 nM |  |  |  |  |  |  | C#CCn1c(=O)c2c(nc(CCc3ccccc3Br)n2CCC)n(CCCCP(=O)(O)O)c1=O [B-22, (4-(8-(2-Bromophenethyl)-2,6-dioxo-1-(prop-2-yn-1-yl)-7-propyl-1,2,6,7-tetrahydro-3H-purin-3-yl)butyl)phosphonic acid] |  |
| 5.03 ± 1.59 nM | 103% | 126 to 129 °C | 164% | 59.9 ± 12.8 nM |  |  |  |  |  |  | C#CCn1c(=O)c2c(nc(CCc3ccccc3Br)n2Cc2ccccc2)n(CCCCP(=O)(O)O)c1=O [B-23, (4-(7-Benzyl-8-(2-bromophenethyl)-2,6-dioxo-1-(prop-2-yn-1-yl)-1,2,6,7-tetrahydro-3H-purin-3-yl)butyl)phosphonic acid] |  |
|  |  | 239 to 241 °C |  |  | 1420 ± 290 nM | 100% | 98% | 8190 ± 1810 nM |  |  | C#CCn1c(=O)c2[nH]c(CCc3ccccc3F)nc2n(CCCCP(=O)(O)O)c1=O [B-24, (4-(8-(2-Fluorophenethyl)-2,6-dioxo-1-(prop-2-yn-1-yl)-1,2,6,7-tetrahydro-3H-purin-3-yl)butyl) phosphonic acid] |  |
|  |  | 227 to 229 °C |  |  | 43.1 ± 9.4 nM | 103% | 96% | 381 ± 112 nM |  |  | C#CCn1c(=O)c2[nH]c(CCc3ccccc3I)nc2n(CCCCP(=O)(O)O)c1=O [B-25, (4-(8-(2-Iodophenethyl)-2,6-dioxo-1-(prop-2-yn-1-yl)-1,2,6,7-tetrahydro-3H-purin-3-yl)butyl) phosphonic acid] |  |
|  |  | 206 to 208 °C |  |  | 187 ± 39 nM | 79% | 70% | 2740 ± 580 nM |  |  | C#CCn1c(=O)c2nc(CCc3ccc(Br)cc3)[nH]c2n(CCCCP(=O)(O)O)c1=O [B-26, (4-(8-(4-Bromophenethyl)-2,6-dioxo-1-(prop-2-yn-1-yl)-1,2,6,9-tetrahydro-3H-purin-3-yl)butyl) phosphonic acid] |  |
|  |  | 227 to 229 °C |  |  | 134 ± 13 nM | 45% | 100% | 2440 ± 750 nM |  |  | C#CCn1c(=O)c2c(nc(CCc3ccc(Br)cc3)n2C)n(CCCCP(=O)(O)O)c1=O [B-29, (4-(8-(4-Bromophenethyl)-7-methyl-2,6-dioxo-1-(prop-2-yn-1-yl)-1,2,6,7-tetrahydro-3H-purin-3-yl)butyl)phosphonic acid] |  |
|  |  | 197 to 199 °C |  |  | 15.5 ± 12.5 nM | 97% | 96% | 262 ± 97 nM |  |  | C#CCn1c(=O)c2c(nc(CCc3ccccc3F)n2CC)n(CCCCP(=O)(O)O)c1=O [B-30, (4-(7-Ethyl-8-(2-fluorophenethyl)-2,6-dioxo-1-(prop-2-yn-1-yl)-1,2,6,7-tetrahydro-3H-purin-3-yl)butyl)phosphonic acid] |  |
|  |  | 169 to 171 °C |  |  | 306 ± 111 nM | 41% | 84% | 521 ± 142 nM |  |  | C#CCn1c(=O)c2c(nc(CCc3ccc(Br)cc3)n2CC)n(CCCCP(=O)(O)O)c1=O [B-35, (4-(8-(4-Bromophenethyl)-7-ethyl-2,6-dioxo-1-(prop-2-yn-1-yl)-1,2,6,7-tetrahydro-3H-purin-3-yl)butyl)phosphonic acid] |  |
|  |  | 137 to 139 °C |  |  | 89.2 ± 25.5 nM | 84% | 87% | 169 ± 23 nM |  |  | C#CCn1c(=O)c2c(nc(CCc3ccccc3Br)n2CC2CCCC2)n(CCCCP(=O)(O)O)c1=O [B-37, (4-(8-(2-Bromophenethyl)-7-(cyclopentylmethyl)-2,6-dioxo-1-(prop-2-yn-1-yl)-1,2,6,7-tetrahydro-3H-purin-3-yl)butyl)phosphonic acid] |  |
|  |  | 138 to 140 °C |  |  |  |  |  |  |  |  | C#CCn1c(=O)c2c(nc(Cc3cccc4ccccc34)n2CC)n(CCCCP(=O)(O)O)c1=O [B-58, (4-(7-Ethyl-8-(naphthalen-1-ylmethyl)-2,6-dioxo-1-(prop-2-yn-1-yl)-1,2,6,7-tetrahydro-3H-purin-3-yl)butyl)phosphonic acid] |  |
| 574 ± 179 nM | 107% |  | 97% | 13000 ± 4100 nM |  |  |  |  | 238 ± 11 nM | 374 ± 111 nM | C#CCn1c(=O)c2c(nc(CCc3cccc(OC)c3)n2C)n(CCCOP(=O)(O)O)c1=O [H-1, 3-(8-(3-Methoxyphenethyl)-7-methyl-2,6-dioxo-1-(prop-2-yn-1-yl)-1,2,6,7-tetrahydro-3H-purin-3-yl)propyl dihydrogen phosphate, reference compound] | Emax [3]: 98%; Emax [4]: 86% |
| 2500 ± 730 nM | 113% |  |  | > 10000 nM |  |  |  |  | 801 ± 233 nM | 674 ± 50 nM | CCCn1c(=O)c2c(nc(CCc3cccc(OC)c3)n2C)n(CCCOP(=O)(O)O)c1=O [H-2, 3-(8-(3-Methoxyphenethyl)-7-methyl-2,6-dioxo-1-propyl-1,2,6,7-tetrahydro-3H-purin-3-yl)propyl dihydrogen phosphate, reference compound] | Emax [3]: 88%; IC50 ([2]; Table 1): > 10000 nM |
| > 10000 nM |  |  |  | > 10000 nM |  |  |  |  | > 10000 nM | > 10000 nM | C#CCn1c(=O)c2[nH]c(/C=C/c3cccc(OC)c3)nc2n(CCCOP(=O)(O)O)c1=O [H-3, (E)-3-(8-(3-Methoxystyryl)-2,6-dioxo-1-(prop-2-yn-1-yl)-1,2,6,7-tetrahydro-3H-purin-3-yl)propyl dihydrogen phosphate, reference compound] | IC50 [1]: > 10000 nM; IC50 ([2]; Table 1): > 10000 nM |
| > 10000 nM |  |  |  | > 10000 nM |  |  |  |  | 11.6 ± 1.3 nM | 200 ± 59 nM | C#CCn1c(=O)c2[nH]c(/C=C/c3cccc(OC)c3)nc2n(CCCCP(=O)(O)O)c1=O [J-1, (E)-(4-(8-(3-Methoxystyryl)-2,6-dioxo-1-(prop-2-yn-1-yl)-1,2,6,7-tetrahydro-3H-purin-3-yl)butyl)phosphonic acid] | Emax [4]: 65% |
| > 10000 nM |  |  |  | > 10000 nM |  |  |  |  | > 10000 nM | > 10000 nM | CCCn1c(=O)c2[nH]c(-c3ccccc3)nc2n(CCCCP(=O)(O)O)c1=O [J-3, (4-(2,6-Dioxo-8-phenyl-1-propyl-1,2,6,7-tetrahydro-3H-purin-3-yl)butyl)phosphonic acid] | IC50 [1]: > 10000 nM; IC50 ([2]; Table 1): > 10000 nM; IC50 [4]: > 10000 nM |

| Compound | EC50 ([1]; Table 1) | Emax ([1]; Table 1) | melting point | Emax ([2]; Table 1) | EC50 [2, 5] | EC50 ([1]; Table 4) | Emax ([1]; Table 4) | Emax ([2]; Table 4) | EC50 ([2]; Table 4) | EC50 [3] | EC50 [4] | further results |
| --- | --- | --- | --- | --- | --- | --- | --- | --- | --- | --- | --- | --- |
| CCCn1c(=O)c2[nH]c(C3CCCC3)nc2n(CCCCP(=O)(O)O)c1=O [J-2, (4-(8-Cyclopentyl-2,6-dioxo-1-propyl-1,2,6,7-tetrahydro-3H-purin-3-yl)butyl)phosphonic acid] | > 50000 nM |  |  |  | > 10000 nM |  |  |  |  | > 10000 nM | 6360 ± 1630 nM | IC50 [1]: > 50000 nM; IC50 ([2]; Table 1): > 10000 nM; Emax [4]: 76% |
